Measurements reported in PubChem BioAssay AID602191 (Broad Institute, 2012).
Calls of active or inactive are those of the source.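 Rule for the calls: active = fitted curve reaches 40% activation at a concentration no higher than the top valid tested dose; inconclusive = flat fit between 30% and 70% activation, or poor fit; inactive = uptake decrease, flat fit within 30% of zero, the rest.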 Residues, ends and D or L forms follow the SMILES beside them.

Target: Scavenger receptor class B member 1 (Mus musculus) (UniProt Q61009)
Experiment: enhancers of DiI-HDL lipid transfer via SR-BI – cell-based, ldlA[mSR-BI] CHO, DiI fluorescence, cherry-pick, dose response (AID 602191);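 note: cell fluorescence from internalized DiI-labeled HDL after washing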;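 for AC40: potency of activators raising HDL uptake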;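 for activation (HDL uptake increase): 0% = median of DMSO wells and 100% = twice the DMSO signal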
Conditions: ldlA[mSR-BI] CHO cells, 3 h; for activation (HDL uptake increase): at 35 µM (top of the series); for AC40: DiI-HDL uptake fluorescence

Chain of Scavenger receptor class B member 1 (Mus musculus) (Q61009 whole entry, looked up): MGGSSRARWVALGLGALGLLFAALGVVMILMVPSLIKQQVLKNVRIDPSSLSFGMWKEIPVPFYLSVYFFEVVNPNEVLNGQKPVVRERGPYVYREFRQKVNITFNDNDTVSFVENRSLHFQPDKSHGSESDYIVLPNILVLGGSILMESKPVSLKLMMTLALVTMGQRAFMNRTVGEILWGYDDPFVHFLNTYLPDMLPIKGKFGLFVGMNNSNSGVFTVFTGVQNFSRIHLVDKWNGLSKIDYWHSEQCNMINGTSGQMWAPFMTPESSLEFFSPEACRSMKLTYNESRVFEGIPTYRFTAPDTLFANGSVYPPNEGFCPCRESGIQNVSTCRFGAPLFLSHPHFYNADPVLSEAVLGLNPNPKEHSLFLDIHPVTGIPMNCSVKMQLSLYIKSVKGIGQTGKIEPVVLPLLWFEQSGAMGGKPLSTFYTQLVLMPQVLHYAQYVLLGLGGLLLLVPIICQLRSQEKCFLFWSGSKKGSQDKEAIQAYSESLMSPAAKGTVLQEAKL

## O=C(Cn1nc(-c2ccccc2)ccc1=O)Nc1ccc(-n2cnnn2)cc1
  activation (HDL uptake increase): 12% (inactive)

## CC(C)Cc1cc(C(=O)NCc2ccco2)no1
  activation (HDL uptake increase): -10.4% (inactive)

## O=C(C1CCC(=O)N(C2CCCC2)C1)N1CCN(Cc2cccc(Cl)c2)CC1 (stereo unspecified)
  activation (HDL uptake increase): -5.02% (inactive)

## O=C1NCCCC1C(=O)NCCNC(=O)C(F)(F)F (stereo unspecified)
  activation (HDL uptake increase): -6.55% (inactive)

## COc1ccc(C(=O)Nc2nnc(SCC(=O)Nc3ccc(NC(C)=O)cc3)s2)c(OC)c1
  activation (HDL uptake increase): -6.9% (inactive)

## COc1ccc(C(=O)NC(=O)CSc2nc3nc(C)cc(C)n3n2)cc1
  activation (HDL uptake increase): -8.5% (inactive)

## CCOC(=O)[C@H]1[C@H]2COc3ccccc3[C@@H]2N2C(=O)CN(Cc3ccccc3)C(=O)[C@@]12C
  activation (HDL uptake increase): -9.27% (inactive)

## Cc1ccc(C(C(=O)NC2CCCC2)N(Cc2ccc(F)cc2)C(=O)c2csnn2)o1 (stereo unspecified)
  activation (HDL uptake increase): 6.32% (inactive)

## O=C1C(=O)N(CNc2cccnc2)c2ccccc21
  activation (HDL uptake increase): -7.96% (inactive)

## O=c1[nH]c(C2CCN(S(=O)(=O)c3ccc4c(c3)OCCO4)CC2)nc2c1nnn2Cc1ccc(F)cc1
  activation (HDL uptake increase): -4.95% (inactive)

## COCCN(CC(=O)Nc1cc(Cl)ccc1-n1cncn1)Cc1nc2ccccc2c(=O)[nH]1
  activation (HDL uptake increase): -4.92% (inactive)

## N#CCCN1CCN(S(=O)(=O)c2ccc(C3CCCCC3)cc2)CC1
  activation (HDL uptake increase): 12% (inactive)

## CC1(C)NC(=O)N(CC(=O)N2CCN(S(=O)(=O)c3ccccc3C(F)(F)F)CC2)C1=O
  activation (HDL uptake increase): -6.43% (inactive)

## CCCCn1c(N)c(N(CCOC)C(=O)C2CC(=O)N(Cc3ccco3)C2)c(=O)[nH]c1=O (stereo unspecified)
  activation (HDL uptake increase): 0.156% (inactive)

## CC(C)(C)NC(=O)C[C@H]1C[C@H](C(=O)N2CCOCC2)[C@@]2(CCC3CCCC3)c3[nH]c4ccc(Cl)cc4c3CCN2C1=O
  AC40: > 35 µM (inactive)

## O=C(c1ccc(CS(=O)Cc2ccccc2Cl)o1)N1CCN(c2ccccn2)CC1 (stereo unspecified)
  activation (HDL uptake increase): -16.3% (inactive)

## O=C(N/N=C\c1cccnc1)c1ccc(Br)s1
  activation (HDL uptake increase): -10.3% (inactive)

## COCCNC(=O)c1onc(CSc2ccc(F)c(F)c2)c1C(=O)O
  activation (HDL uptake increase): -4.96% (inactive)

## C=CCOC(=O)C1=C[C@H](c2ccc(C(F)(F)F)cc2)C[C@H](OCCCCO)O1
  activation (HDL uptake increase): -10.3% (inactive)

## CC[C@H](C)[C@@H]1NC(=O)[C@H]([C@@H](C)CC)NC(=O)[C@@H](CC(C)C)NC(=O)[C@H](Cc2ccccc2)NC(=O)[C@H](Cc2ccccc2)NC(=O)[C@@H]2CCCN2C(=O)[C@@H]2CCCN2C(=O)[C@H](C(C)C)NC(=O)[C@H](CC(C)C)NC1=O (HELM PEPTIDE1{F.F.[dL].I.I.L.V.P.P}$PEPTIDE1,PEPTIDE1,1:R1-9:R2$$$V2.0)
  activation (HDL uptake increase): 5.97% (inactive)

## O=C(CC1C[C@H](C(=O)N2CCOCC2)[C@@]2(CCC3CCCC3)c3[nH]c4ccccc4c3CCN2C1=O)NCc1cccc(C(F)(F)F)c1 (stereo partly specified)
  activation (HDL uptake increase): 25.1% (inactive)

## CCOC(=O)N1CCC(NC(=S)Nc2ccc3nc(N4CCN(C)CC4)cc(C)c3c2)CC1
  activation (HDL uptake increase): -25.6% (inactive)

## CNC[C@H](CC1CCCCC1)NC[C@H](Cc1ccccc1)NCCC12CC3CC(CC(C3)C1)C2
  activation (HDL uptake increase): -31.7% (inactive)

## Cc1cc(NC(=O)CN2C(=O)NC(C)(c3ccc(OC(F)F)cc3)C2=O)no1 (stereo unspecified)
  activation (HDL uptake increase): -7.97% (inactive)

## COc1ccc(Oc2nc(Oc3ccc(OC)cc3)nc(Oc3ccc(OC)cc3)n2)cc1
  activation (HDL uptake increase): -9.22% (inactive)

## CCOC(=O)C1CCCN(C(=O)CS(=O)(=O)Cc2ccccc2)C1 (stereo unspecified)
  activation (HDL uptake increase): 7.75% (inactive)

## Cc1cccc(C)c1OCc1cc(C(=O)N2CCC(c3ccccc3)CC2)no1
  activation (HDL uptake increase): 2.24% (inactive)

## O=C(NCc1ccccn1)c1ccc(S(=O)(=O)Nc2ccccc2F)cc1
  activation (HDL uptake increase): 0.427% (inactive)

## O=C(Cc1ccc(NC(=O)C2CCN(C(=O)C3CC3)CC2)cc1)Nc1ccc(C(=O)N2CCOCC2)cc1
  AC40: > 35 µM (inactive)

## COc1ccc(C(=O)NNS(=O)(=O)c2ccccc2)cc1OC
  activation (HDL uptake increase): -10.5% (inactive)

## O=C(CCC(=O)N1CCOc2ccc(Cl)cc21)NCCCN1CCN(Cc2ccccc2)CC1
  activation (HDL uptake increase): 4.6% (inactive)

## CCc1cc(C(=O)Nc2cc(S(=O)(=O)N3CCOCC3)ccc2N2CCN(CC)CC2)sc1C
  activation (HDL uptake increase): -0.114% (inactive)

## O=C1CCCC/C=C\C[C@H](CC(=O)N(CCO)Cc2ccccc2)C(=O)N2CCC[C@@H]2CO1
  activation (HDL uptake increase): -5.56% (inactive)

## CN(c1cccc(NC(=O)CN(c2ccc(C34CC5CC(CC(C5)C3)C4)cc2)S(C)(=O)=O)c1)S(C)(=O)=O
  activation (HDL uptake increase): 17.6% (inactive)

## COCCCNC(=O)CCSc1ccc(Cl)cc1
  activation (HDL uptake increase): -8.45% (inactive)

## Cc1c(C)c2ccc(OCC(=O)NC(Cc3c[nH]c4ccc(O)cc34)C(=O)O)c(C)c2oc1=O (stereo unspecified)
  activation (HDL uptake increase): -0.695% (inactive)

## CCc1nc(SCC(=O)Nc2ccc([N+](=O)[O-])cc2)n[nH]1
  activation (HDL uptake increase): -10.4% (inactive)

## O=C(CN1CCN(S(=O)(=O)c2ccc(F)cc2)CC1)Nc1ccc(F)cc1F
  activation (HDL uptake increase): 5.31% (inactive)

## Cc1ccc(OCCOCCN(C)C)c(Cl)c1
  activation (HDL uptake increase): 3.89% (inactive)

## CN1CCN(CCC(=O)N2c3ccccc3Sc3ccc(Cl)cc32)CC1
  activation (HDL uptake increase): -3.2% (inactive)

## O=C(COc1ccc([N+](=O)[O-])cc1)NCc1cccnc1
  activation (HDL uptake increase): -4.82% (inactive)

## COc1ccc2sc(-c3ccccc3OC)c(-c3ccc(OCCN4CCCC4)cc3)c2c1
  AC40: > 35 µM (inactive)

## Cc1c(C(=O)N(C)C(C)c2ccncn2)oc2c(F)cccc12 (stereo unspecified)
  activation (HDL uptake increase): -9.31% (inactive)

## Cc1nn(CC(=O)OC(C)C(=O)Nc2ccccc2[N+](=O)[O-])c(C)c1[N+](=O)[O-] (stereo unspecified)
  activation (HDL uptake increase): -9.77% (inactive)

## COc1ccc2oc(C(=O)OCC(=O)Nc3ccc(C(=O)N(C)C)cc3)c(C)c2c1
  activation (HDL uptake increase): -13.1% (inactive)

## CC(C)C(NC(=O)c1ccccc1F)C(=O)NCc1ccccc1 (stereo unspecified)
  activation (HDL uptake increase): 4.3% (inactive)

## O=C(O)C1CCN(Cc2cnn(-c3ccccc3)c2-n2cccc2)CC1
  activation (HDL uptake increase): 6.93% (inactive)

## CC1CCCC(C)N1C(=O)COC(=O)CN1C(=O)c2ccccc2C1=O (stereo unspecified)
  activation (HDL uptake increase): -4.2% (inactive)

## COCCNC(=O)c1onc(CSc2cccc(C)c2)c1C(=O)O
  AC40: > 35 µM (inactive)

## O=C1CCC(C(=O)N2CCCCCCC2)CN1Cc1cccc(C(F)(F)F)c1 (stereo unspecified)
  activation (HDL uptake increase): -0.452% (inactive)

## Cc1c(/C(O)=C2/C(=O)C(=O)N(CCN3CCOCC3)C2c2cccnc2)cnn1-c1ccccc1 (stereo unspecified)
  activation (HDL uptake increase): -0.755% (inactive)

## Cc1cc(OCC(=O)OCC(=O)NC2CCCCC2C)ccc1Cl (stereo unspecified)
  activation (HDL uptake increase): -2.13% (inactive)

## NC(=O)c1ncn([C@@H]2O[C@H](CN=C3NS(=O)(=O)c4ccccc43)[C@@H](O)[C@H]2O)n1
  AC40: > 35 µM (inactive)

## O=c1c(C=NCCN2CCNCC2)c(O)n(C2CCCCC2)c(=O)n1C1CCCCC1
  AC40: > 35 µM (inactive)

## COC1CCCN(Cc2c(C(=O)N3CCN(C4CCCCC4)CC3)nc3ccccn23)C1 (stereo unspecified)
  activation (HDL uptake increase): -7.41% (inactive)

## CCC(=O)Nc1ccc(C(=O)NNC(=O)c2cccs2)cc1
  activation (HDL uptake increase): -6.45% (inactive)

## O=C1C2CCCN2C(=O)N1CCCCN1CCN(c2ccccc2)CC1 (stereo unspecified)
  activation (HDL uptake increase): 10.3% (inactive)

## COCCCNC(=O)CC(NS(=O)(=O)c1ccc(OC)cc1)c1ccc(OC)cc1 (stereo unspecified)
  activation (HDL uptake increase): -4.2% (inactive)

## CCCCC(=O)OCC(=O)C1(O)Cc2c(O)c3c(c(O)c2C(OC2CC(NC(=O)C(F)(F)F)C(O)C(C)O2)C1)C(=O)c1c(OC)cccc1C3=O (stereo unspecified)
  activation (HDL uptake increase): 16.6% (inactive)

## Cc1cccc(N2C(=O)N3[C@H](c4ccc(Br)cc4)[C@@H]4C(=O)N(C(C)(C)C)C(=O)[C@@H]4[C@]3(C)C2=O)c1
  activation (HDL uptake increase): 6.14% (inactive)

## Cc1cccc(NC(=O)CN2CCN(C(=O)C3CCCO3)CC2)c1C (stereo unspecified)
  activation (HDL uptake increase): -0.486% (inactive)

## NNC(=O)CNC(c1ccccc1)c1cc(Br)ccc1NC(=O)CCN1CCOCC1 (stereo unspecified)
  activation (HDL uptake increase): -9.57% (inactive)

## O=S(=O)(Nc1ccccc1OC(F)F)c1ccc(S(=O)(=O)N2CCCC2)cc1
  activation (HDL uptake increase): -11.8% (inactive)

## Cc1ccc(NC(=O)CSc2nc3nc(C)c(Br)cc3[nH]2)cc1F
  activation (HDL uptake increase): -7.04% (inactive)

## COc1cccc(N2CCN(c3ccc4nnc(CCC(=O)Nc5cc(C)ccn5)n4n3)CC2)c1
  activation (HDL uptake increase): -11.4% (inactive)

## CSc1ccc(S(=O)(=O)NCC(=O)OCC(=O)N(C)Cc2ccccc2)cc1[N+](=O)[O-]
  activation (HDL uptake increase): 4.31% (inactive)

## Cc1cc(N2C(=O)C3C4C=CC(C4)C3C2=O)no1 (stereo unspecified)
  activation (HDL uptake increase): -2.45% (inactive)

## Cc1ccc(-n2ncc3c(=O)n(CC(=O)N4CCN(c5ccccc5F)CC4)cnc32)cc1C
  activation (HDL uptake increase): -20.1% (inactive)

## Cc1ccc(S(=O)(=O)Nc2ccc3c(c2)C(=O)N([C@H](C)CO)C[C@H](C)[C@@H](CN(C)Cc2ccc(-c4ccccc4)cc2)O3)cc1
  AC40: 35 µM

## Cc1nn(-c2ccccc2)nc1CNC(=O)C(C)Cc1ccccc1 (stereo unspecified)
  activation (HDL uptake increase): -12.5% (inactive)

## CCC(C)[C@@H](C(=O)NCC1CCC(C(=O)O)CC1)n1nnc2ccccc2c1=O (stereo partly specified)
  activation (HDL uptake increase): -5.54% (inactive)

## CC(=O)N1CCN(C(=O)c2ccc(-n3c(C)ccc3C)cc2)CC1
  activation (HDL uptake increase): -10.8% (inactive)

## C/C=C(\C)C(=O)OC1CC(C)(C)C[C@H]2C3=CC[C@@H]4[C@@]5(C)CCC(O[C@@H]6O[C@@H](C(=O)O)[C@@H](O)C(O[C@@H]7OC[C@H](O)[C@@H](O)[C@@H]7O[C@@H]7OC(CO)C(O)[C@@H](O)[C@@H]7O)C6O[C@@H]6OC(CO)C(O)C(O)C6O)[C@@](C)(CO)[C@@H]5CC[C@]4(C)[C@]3(C)CC(O)[C@@]12CO (stereo partly specified)
  activation (HDL uptake increase): -2.08% (inactive)

## COc1ccc(N2CC(NS(=O)(=O)c3cccnc3)CC2=O)cc1 (stereo unspecified)
  activation (HDL uptake increase): -6.57% (inactive)

## C[C@H](CO)N1C[C@H](C)[C@H](CN(C)Cc2ccc(-c3ccccc3)cc2)Oc2ccc(NS(=O)(=O)c3ccccc3)cc2CC1=O
  activation (HDL uptake increase): 44.6% (inactive)

## O=C(O)CCc1nnc(SCC(=O)Nc2ccc(Br)cc2)[nH]c1=O
  activation (HDL uptake increase): -2.46% (inactive)
